“And” between values parts separate entries of the source, which are not always exact repeats. Identical values can stand only once.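 Step 1: Grow cells in 96-well plates. Step 2: Expose to compound for 48 hours at 5 concentrations. Step 3: Interpolate endpoints linearly; if unreached, use highest concentration. At the GI50, growth is halved. TGI is the concentration that stops growth completely.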
What was measured:
Test in all cases: inhibition of tumour cell growth, NCI panel, 48 h
[1] = test system: DU-145 prostate
[2] = test system: NCI-H522 lung
[3] = test system: ACHN renal
[4] = test system: HCT-15 colon
[5] = test system: OVCAR-8 ovarian
[6] = test system: RPMI-8226 leukemia
[7] = test system: IGROV1 ovarian
[8] = test system: COLO 205 colon
[9] = test system: PC-3 prostate
[10] = test system: SR leukemia
[11] = test system: HOP-62 NSCLC
[12] = test system: CAKI-1 renal
[13] = test system: UACC-62 melanoma
[14] = test system: A549 NSCLC
[15] = test system: UACC-257 melanoma
[16] = test system: T-47D breast
[17] = test system: HOP-92 NSCLC
[18] = test system: OVCAR-3 ovarian
[19] = test system: TK-10 renal
[20] = test system: SK-OV-3 ovarian
[21] = test system: HCC-2998 colon
[22] = test system: OVCAR-5 ovarian
[23] = test system: CCRF-CEM leukemia
[24] = test system: K-562 leukemia
[25] = test system: MDA-MB-231 breast
[26] = test system: UO-31 renal
[27] = test system: SK-MEL-2 melanoma
[28] = test system: NCI-H23 lung
[29] = test system: SN12C renal
[30] = test system: SNB-75 CNS
[31] = test system: RXF 393 renal
[32] = test system: EKVX NSCLC
[33] = test system: MALME-3M melanoma
[34] = test system: HCT-116 colon
[35] = test system: HS 578T breast
[36] = test system: SW-620 colon
[37] = test system: NCI-H460 lung
[38] = test system: A498 renal
[39] = test system: MDA-MB-435
[40] = test system: SNB-19 CNS
[41] = test system: NCI-H226 lung
[42] = test system: SK-MEL-5 melanoma
[43] = test system: SF-295 CNS
[44] = test system: KM12 colon
[45] = test system: SF-539 CNS
[46] = test system: OVCAR-4 ovarian
[47] = test system: HL-60(TB) leukemia
[48] = test system: M14 melanoma
[49] = test system: MCF7 breast
[50] = test system: BT-549 breast
[51] = test system: 786-0 renal
[52] = test system: HT29 colon
[53] = test system: SK-MEL-28 melanoma
[54] = test system: NCI/ADR-RES ovarian
[55] = test system: LOX IMVI melanoma
[56] = test system: SF-268 CNS
[57] = test system: U251 CNS
[58] = test system: MOLT-4 leukemia

SMILES: Cn1cnc2c(F)c(Nc3ccc(Br)cc3Cl)c(C(=O)NOCCO)cc21
- GI50 [1]: > 10 µM and 74.6 µM
- TGI [1]: > 100 µM
- GI50 [2]: > 10 µM and 61.3 µM
- TGI [2]: > 100 µM
- GI50 [3]: 9.92 µM and 29 µM
- TGI [3]: > 100 µM
- GI50 [4]: > 10 µM and 40.5 µM
- TGI [4]: > 100 µM
- GI50 [5]: > 10 µM and 67.9 µM
- TGI [5]: > 100 µM
- GI50 [6]: > 10 µM and 28.2 µM
- TGI [6]: > 100 µM
- GI50 [7]: 0.264 µM and 1.34 µM
- TGI [7]: > 100 µM
- GI50 [8]: 0.0211 µM and < 0.0137 µM
- TGI [8]: > 15.1 µM
- GI50 [9]: > 100 µM
- TGI [9]: > 100 µM
- GI50 [10]: > 10 µM and 5.85 µM
- TGI [10]: > 33.8 µM
- GI50 [11]: 0.399 µM and 0.232 µM
- TGI [11]: > 100 µM
- GI50 [12]: > 2.6 µM and 17.9 µM
- TGI [12]: > 100 µM
- GI50 [13]: 0.0123 µM and 0.0212 µM
- GI50 [14]: 6.85 µM and 10.8 µM
- TGI [14]: > 100 µM
- GI50 [15]: 0.0212 µM and < 0.0177 µM
- TGI [15]: 0.207 µM and 0.0755 µM
- GI50 [16]: > 10 µM and 82.4 µM
- TGI [16]: > 100 µM
- GI50 [17]: 0.197 µM and 0.235 µM
- TGI [17]: 6.14 µM and 8.67 µM
- GI50 [18]: > 10 µM and 62.9 µM
- TGI [18]: > 100 µM
- GI50 [19]: 0.183 µM and 1.62 µM
- TGI [19]: > 100 µM
- GI50 [20]: > 10 µM and 63.4 µM
- TGI [20]: > 100 µM
- GI50 [21]: 0.0213 µM and < 0.0171 µM
- TGI [21]: > 10 µM and 2.77 µM
- TGI [22]: > 100 µM
- GI50 [23]: > 94.6 µM
- TGI [23]: > 100 µM
- GI50 [24]: > 10 µM and 12.3 µM
- TGI [24]: > 100 µM
- GI50 [25]: 0.822 µM and 1.94 µM
- TGI [25]: > 100 µM
- GI50 [26]: 1.45 µM and 3.38 µM
- TGI [26]: > 66 µM
- GI50 [27]: 0.0262 µM and < 0.0122 µM
- TGI [27]: 0.78 µM and 0.565 µM
- GI50 [28]: 0.74 µM and 1.04 µM
- TGI [28]: > 100 µM
- GI50 [29]: > 10 µM and 47.6 µM
- TGI [29]: > 100 µM
- GI50 [30]: > 10 µM and 60.4 µM
- TGI [30]: > 100 µM
- GI50 [31]: 1.9 µM and 9.28 µM
- TGI [31]: > 10 µM and 78 µM
- GI50 [32]: 0.734 µM and 3.88 µM
- TGI [32]: > 100 µM
- GI50 [33]: < 0.0187 µM
- TGI [33]: 0.018 µM
- GI50 [34]: 0.648 µM and 1.07 µM
- TGI [34]: > 100 µM
- GI50 [35]: > 10 µM and 32.5 µM
- TGI [35]: > 100 µM
- GI50 [36]: 0.0436 µM and 0.0226 µM
- TGI [36]: > 100 µM
- GI50 [37]: > 10 µM and 32.3 µM
- TGI [37]: > 100 µM
- GI50 [38]: 0.103 µM and 0.16 µM
- TGI [38]: 1.86 µM and 4.1 µM
- GI50 [39]: 0.0709 µM and 0.0294 µM
- TGI [39]: > 100 µM
- GI50 [40]: > 10 µM and 40.4 µM
- TGI [40]: > 100 µM
- GI50 [41]: > 10 µM and 23.9 µM
- TGI [41]: > 100 µM
- GI50 [42]: 2.4 µM and 0.95 µM
- TGI [42]: > 100 µM
- GI50 [43]: > 10 µM and 67.2 µM
- TGI [43]: > 100 µM
- GI50 [44]: 0.685 µM and 0.847 µM
- TGI [44]: > 100 µM
- GI50 [45]: > 10 µM and 22.4 µM
- TGI [45]: > 100 µM
- GI50 [46]: > 10 µM and 22.7 µM
- TGI [46]: > 100 µM
- GI50 [47]: 0.0218 µM
- TGI [47]: > 10 µM and 5.35 µM
- GI50 [48]: 0.0271 µM and < 0.0144 µM
- TGI [48]: > 6.91 µM and 4.53 µM
- GI50 [49]: > 100 µM
- TGI [49]: > 100 µM
- GI50 [50]: > 10 µM and 30 µM
- TGI [50]: > 100 µM
- GI50 [51]: > 10 µM and 60.6 µM
- TGI [51]: > 100 µM
- GI50 [52]: 0.0278 µM and 0.0265 µM
- TGI [52]: > 100 µM
- GI50 [53]: 0.0269 µM and 0.0268 µM
- TGI [53]: > 2.81 µM and 2.52 µM
- GI50 [54]: > 100 µM
- TGI [54]: > 100 µM
- GI50 [55]: 1.26 µM and 1.45 µM
- TGI [55]: > 80.9 µM
- GI50 [56]: > 10 µM and 60.5 µM
- TGI [56]: > 100 µM
- GI50 [57]: > 8.16 µM and 30.1 µM
- TGI [57]: > 100 µM
- GI50 [58]: > 10 µM and 62.2 µM
- TGI [58]: > 100 µM
